Data taken from ChEMBL document CHEMBL1201862, “PubChem BioAssay data set” (2004).
One block for each compound: values may come before it. The source made the active and inactive calls.

Columns and labels:
[1] = molecular target: Glyceraldehyde-3-phosphate dehydrogenase (Homo sapiens, UniProt P04406)
[2] = molecular target: T1, Neuropeptide Y receptor type 2 (Homo sapiens, UniProt P49146); assay: NPY-Y2 antagonist potency, selectivity check, dose response, counter-screen for NPY-Y1 antagonist project, cell-based (AID 1278); assay type: functional
T1 sequence (P49146 whole entry): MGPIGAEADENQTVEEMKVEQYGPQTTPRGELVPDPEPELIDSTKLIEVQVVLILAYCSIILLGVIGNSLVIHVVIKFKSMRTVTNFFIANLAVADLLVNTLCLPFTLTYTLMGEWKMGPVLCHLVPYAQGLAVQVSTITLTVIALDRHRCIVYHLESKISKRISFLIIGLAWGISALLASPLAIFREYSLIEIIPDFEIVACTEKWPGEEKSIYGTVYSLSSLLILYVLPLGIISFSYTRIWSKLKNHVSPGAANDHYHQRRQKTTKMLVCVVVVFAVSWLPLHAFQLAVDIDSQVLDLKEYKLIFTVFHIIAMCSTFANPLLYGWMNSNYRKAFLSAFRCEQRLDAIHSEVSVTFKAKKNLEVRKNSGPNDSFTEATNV

[3] = molecular target: T2, Neuropeptide Y receptor type 1 (Homo sapiens, UniProt P25929); assay: NPY-Y1 receptor antagonist potency, dose response, cell-based (AID 1277); assay type: functional
T2 sequence (P25929 whole entry): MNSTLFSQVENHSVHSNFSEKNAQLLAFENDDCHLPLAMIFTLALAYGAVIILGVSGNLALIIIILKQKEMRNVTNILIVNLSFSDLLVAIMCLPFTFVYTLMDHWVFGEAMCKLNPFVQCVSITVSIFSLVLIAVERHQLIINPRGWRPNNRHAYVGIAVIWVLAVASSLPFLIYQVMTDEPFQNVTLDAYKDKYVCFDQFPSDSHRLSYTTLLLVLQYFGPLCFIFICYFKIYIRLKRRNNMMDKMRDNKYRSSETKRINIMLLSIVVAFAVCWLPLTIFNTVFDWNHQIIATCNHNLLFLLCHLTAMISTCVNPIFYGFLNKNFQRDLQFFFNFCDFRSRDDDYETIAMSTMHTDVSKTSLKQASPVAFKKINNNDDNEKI

[4] = Luminescence Cell-Based Dose Retest to Confirm Inhibitors of Cancer Stem Cells. [Related pubchem assays (depositor defined):AID2717, AID2721]; assay type: functional; details: Homo sapiens
Trypsin = Trypsin (Sus scrofa, UniProt P00761); assay: porcine trypsin inhibitors, dose response, selectivity assay for Rce1 protease inhibitor project, biochemical, quenched peptide fluorescence, cherry-pick (AID 488789)
CAAX prenyl protease 2 = molecular target: T3, CAAX prenyl protease 2 (Saccharomyces cerevisiae S288c, UniProt Q03530); assay type: biochemical
T3 sequence (Q03530 whole entry): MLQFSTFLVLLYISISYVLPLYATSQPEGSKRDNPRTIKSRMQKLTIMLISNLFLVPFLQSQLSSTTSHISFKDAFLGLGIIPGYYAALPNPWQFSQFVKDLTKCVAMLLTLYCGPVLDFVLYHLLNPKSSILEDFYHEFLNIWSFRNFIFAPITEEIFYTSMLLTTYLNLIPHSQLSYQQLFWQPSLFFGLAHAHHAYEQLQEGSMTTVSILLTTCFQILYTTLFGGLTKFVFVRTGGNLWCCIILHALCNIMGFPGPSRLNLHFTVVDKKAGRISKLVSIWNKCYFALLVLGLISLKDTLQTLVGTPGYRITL

[5] = molecular target: Potassium voltage-gated channel subfamily KQT member 2 (Rattus norvegicus, UniProt O88943, W236L); assay: KCNQ2 channel potentiators, dose response, mechanism study for KCNQ2 potentiator project, cell-based, automated electrophysiology (AID 2603); assay type: functional
Potassium voltage-gated channel subfamily KQT member 2, sequence (O88943 whole entry W236L): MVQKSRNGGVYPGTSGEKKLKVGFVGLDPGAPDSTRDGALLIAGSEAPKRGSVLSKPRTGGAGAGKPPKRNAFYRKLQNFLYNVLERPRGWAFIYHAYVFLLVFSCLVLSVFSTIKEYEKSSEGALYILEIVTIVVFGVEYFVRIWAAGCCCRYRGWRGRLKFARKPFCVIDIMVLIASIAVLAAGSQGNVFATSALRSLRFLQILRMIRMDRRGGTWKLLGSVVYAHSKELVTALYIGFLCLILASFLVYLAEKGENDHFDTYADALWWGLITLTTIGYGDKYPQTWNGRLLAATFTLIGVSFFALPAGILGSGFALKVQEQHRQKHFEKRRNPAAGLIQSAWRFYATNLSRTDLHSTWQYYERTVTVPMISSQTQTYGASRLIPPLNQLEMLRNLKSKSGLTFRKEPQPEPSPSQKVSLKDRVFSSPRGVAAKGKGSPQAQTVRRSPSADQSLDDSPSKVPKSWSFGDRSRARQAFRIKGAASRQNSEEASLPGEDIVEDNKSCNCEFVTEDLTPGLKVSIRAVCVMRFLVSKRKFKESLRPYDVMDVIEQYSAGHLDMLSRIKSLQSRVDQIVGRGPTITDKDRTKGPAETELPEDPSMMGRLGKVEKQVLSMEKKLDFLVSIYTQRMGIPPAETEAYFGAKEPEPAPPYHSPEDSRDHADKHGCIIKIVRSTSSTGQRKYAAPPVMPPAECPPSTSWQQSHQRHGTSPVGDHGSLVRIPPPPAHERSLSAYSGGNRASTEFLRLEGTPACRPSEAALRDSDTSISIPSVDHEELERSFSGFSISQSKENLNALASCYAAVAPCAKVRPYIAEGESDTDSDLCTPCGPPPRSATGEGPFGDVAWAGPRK

Glyceraldehyde-3-phosphate dehydrogenase, sequence (P04406 whole entry): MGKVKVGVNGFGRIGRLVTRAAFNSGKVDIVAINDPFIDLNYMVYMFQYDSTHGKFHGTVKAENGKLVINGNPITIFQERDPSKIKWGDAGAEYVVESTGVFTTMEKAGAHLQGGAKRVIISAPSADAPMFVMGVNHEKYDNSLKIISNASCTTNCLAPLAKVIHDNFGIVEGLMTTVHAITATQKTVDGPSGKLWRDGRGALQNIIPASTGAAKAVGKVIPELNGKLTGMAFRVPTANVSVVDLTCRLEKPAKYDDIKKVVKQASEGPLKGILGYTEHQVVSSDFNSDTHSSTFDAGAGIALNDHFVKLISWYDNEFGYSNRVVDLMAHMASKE
Trypsin, sequence (P00761 whole entry): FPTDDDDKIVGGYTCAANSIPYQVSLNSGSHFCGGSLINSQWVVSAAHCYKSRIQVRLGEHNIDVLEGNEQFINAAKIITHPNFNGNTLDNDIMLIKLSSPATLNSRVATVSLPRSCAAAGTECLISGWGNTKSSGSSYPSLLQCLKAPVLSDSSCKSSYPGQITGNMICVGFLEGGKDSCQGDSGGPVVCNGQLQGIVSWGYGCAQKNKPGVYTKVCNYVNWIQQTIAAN

IC50 [1]: > 50 µM (inconclusive)
SMILES: COc1cccc(N2C(=O)C(Cl)=C(N(C)C)C2=O)c1

IC50 [2]: > 35 µM (not active)
IC50 [3]: > 35 µM (not active)
SMILES: CCCCC(O)(CCCC)C(=O)NN(C(=O)OC)c1ccccc1

SMILES: Cc1nc(N2CCCCC2)c2c(C)c(C(=O)Nc3ccccc3C(F)(F)F)sc2n1
IC50 [2]: 6.66 µM (active)
IC50 [3]: 7.1 µM (active)
AC50 [4]: 2.18 µM (active)
AC50 (Trypsin): > 100 µM (inactive)
AC50 (CAAX prenyl protease 2): 13.4 µM (active)

EC50 [5]: 13.8 µM (active)
SMILES: O=C(Nc1cccc(OC(F)(F)F)c1)c1ccc(Br)o1
